Measurements reported in patent US20070128217A1 (priority 2003, published 2007).

Key:
[1] = system: rabbit serum obtained by immunizing a rabbit with the SARS-CoV strain Frankfurt 1; assay type: binding; set-up: Binding of a rabbit serum to linear peptides / Binding of a rabbit serum to looped peptides / Rabbit serum linear peptides / Rabbit serum looped peptides / Binding of a rabbit serum to linear peptides of protein N of SARS-CoV Urbani (Rabbit serum linear peptides) / Binding of a rabbit serum to looped/cyclic peptides of protein N of SARS-CoV Urbani (Rabbit serum looped peptides): unit not given here
[2] = system: recombinant human anti-SARS-CoV antibody 03-018; assay type: binding; set-up: Binding of antibody 03-018 to linear peptides of the N protein of SARS-CoV Urbani / Binding of antibody 03-018 to looped/cyclic peptides of the N protein of SARS-CoV Urbani: unit not given here
[3] = system: antibodies in sera from SARS patients (sera 1a, 1b, 2, 6, 37, 62, London, SARS-yellow, SARS-green); assay type: binding, human; set-up: Binding of serum 6 to linear peptides of protein X1 of SARS-CoV Urbani / Binding of serum 37 to linear peptides of protein X1 of SARS-CoV Urbani / Binding of serum 6 to looped/cyclic peptide (PEPSCAN-ELISA) / Binding of serum 37 to looped/cyclic peptide (PEPSCAN-ELISA) / Binding of serum 37 to looped/cyclic peptides of protein X1 of SARS-CoV Urbani / Binding of serum 6 to linear peptides of protein X2 / Binding of serum 37 to linear peptides of protein X2 / Binding of serum 37 to looped/cyclic peptides of protein X2 of SARS-CoV Urbani / Binding of serum 6 to linear peptides of protein M of SARS-CoV Urbani / Binding of serum 37 to linear peptides of protein M of SARS-CoV Urbani / Binding of serum 6 to looped/cyclic peptides of protein M of SARS-CoV Urbani / Binding of serum 37 to looped/cyclic peptides of protein M of SARS-CoV Urbani / Binding of serum 6 to linear peptides of protein X3 of SARS-CoV Urbani / Binding of serum 37 to linear peptides of protein X3 of SARS-CoV Urbani / Binding of serum 37 to looped/cyclic peptides of protein X3 of SARS-CoV Urbani / Binding of serum 6 to linear peptides of protein X4 of SARS-CoV Urbani / Binding of serum 37 to linear peptides of protein X4 of SARS-CoV Urbani / Binding of serum 37 to looped/cyclic peptides of protein X4 of SARS-CoV Urbani / Binding of serum 6 to linear peptides of protein X5 of SARS-CoV Urbani / Binding of serum 37 to linear peptides of protein X5 of SARS-CoV Urbani / Binding of serum 37 to looped/cyclic peptides of protein X5 of SARS-CoV Urbani / Binding of serum 6 to linear peptides of protein N of SARS-CoV Urbani / Binding of serum 37 to linear peptides of protein N of SARS-CoV Urbani / Binding of serum 6 to linear peptide (PEPSCAN-ELISA) / Binding of serum 1a to looped/cyclic peptides of protein N of SARS-CoV Urbani / Binding of serum 1b to looped/cyclic peptides of protein N of SARS-CoV Urbani / Binding of serum 2 to looped/cyclic peptides of protein N of SARS-CoV Urbani / Binding of serum 6 to looped/cyclic peptides of protein N of SARS-CoV Urbani / Binding of serum 37 to looped/cyclic peptides of protein N of SARS-CoV Urbani / Binding of serum 62 to looped/cyclic peptides of protein N of SARS-CoV Urbani / Binding of serum London to looped/cyclic peptides of protein N of SARS-CoV Urbani / Binding of serum SARS-green to looped/cyclic peptides of protein N of SARS-CoV Urbani: unit not given here
[4] = system: control sera (pooled serum of ten healthy LUMC hospital workers; commercial negative donor pooled serum from the Dutch bloodbank); assay type: binding, human; set-up: Binding of Control serum LUMC to linear peptides / Binding of Control serum Blood-bank to linear peptides / Binding of Control serum LUMC to looped peptides / Binding of Control Serum Blood-Bank to Looped peptides / Binding of Control serum LUMC to linear peptides of the protein M of SARS-CoV Urbani / Binding of Control serum Blood-bank to linear peptides of the protein M of SARS-CoV Urbani / Binding of Control serum LUMC to looped peptides of the protein M of SARS-CoV Urbani / Binding of Control Serum Blood-Bank to Looped peptides of the protein M of SARS-CoV Urbani: unit not given here

Question: Which results are given for TVLQLPQGTTLPKGF?
Answer: Binding of a rabbit serum to linear peptides of protein N of SARS-CoV Urbani (Rabbit serum linear peptides) [1]: 0.3; Binding of a rabbit serum to looped/cyclic peptides of protein N of SARS-CoV Urbani (Rabbit serum looped peptides) [1]: 1.2; Binding of antibody 03-018 to linear peptides of the N protein of SARS-CoV Urbani [2]: 0.1; Binding of antibody 03-018 to looped/cyclic peptides of the N protein of SARS-CoV Urbani [2]: 0.3

Question: For DDKDPQFKDNVILLN, which “Binding of a rabbit serum to linear peptides of protein N of SARS-CoV Urbani (Rabbit serum linear peptides)” value [1] is on record?
Answer: 0.1

Question: What about the “Binding of a rabbit serum to looped/cyclic peptides of protein N of SARS-CoV Urbani (Rabbit serum looped peptides)” value [1] of the same sequence?
Answer: 0.4

Question: What about the “Binding of antibody 03-018 to linear peptides of the N protein of SARS-CoV Urbani” value [2] of the same sequence?
Answer: 0.1

Question: And the “Binding of antibody 03-018 to looped/cyclic peptides of the N protein of SARS-CoV Urbani” value [2]?
Answer: 0.3

Question: Which results are given for ATVLQLPQGTTLPKG?
Answer: Binding of a rabbit serum to linear peptides of protein N of SARS-CoV Urbani (Rabbit serum linear peptides) [1]: 0.2; Binding of a rabbit serum to looped/cyclic peptides of protein N of SARS-CoV Urbani (Rabbit serum looped peptides) [1]: 0.3; Binding of antibody 03-018 to linear peptides of the N protein of SARS-CoV Urbani [2]: 0.1; Binding of antibody 03-018 to looped/cyclic peptides of the N protein of SARS-CoV Urbani [2]: 0.2

Question: Which results are given for IVFTSCELYHYQECV?
Answer: Binding of serum 1a to linear peptides of protein X4 of SARS-CoV Urbani [3]: 0.8; Binding of serum 1a to looped/cyclic peptides of protein X4 of SARS-CoV Urbani [3]: 0.9; Binding of serum 1b to linear peptides of protein X4 of SARS-CoV Urbani [3]: 0.9; Binding of serum 1b to looped/cyclic peptides of protein X4 of SARS-CoV Urbani [3]: 0.8; Binding of serum 2 to linear peptides of protein X4 of SARS-CoV Urbani [3]: 0.6; Binding of serum 2 to looped/cyclic peptides of protein X4 of SARS-CoV Urbani [3]: 0.8; Binding of serum 6 to linear peptides of protein X4 of SARS-CoV Urbani [3]: 0.8; Binding of serum 6 to looped/cyclic peptides of protein X4 of SARS-CoV Urbani [3]: 0.6; Binding of serum 37 to linear peptides of protein X4 of SARS-CoV Urbani [3]: 1.0; Binding of serum 37 to looped/cyclic peptides of protein X4 of SARS-CoV Urbani [3]: 1.0; Binding of serum 62 to linear peptides of protein X4 of SARS-CoV Urbani [3]: 1.0; Binding of serum 62 to looped/cyclic peptides of protein X4 of SARS-CoV Urbani [3]: 0.8; Binding of serum London to linear peptides of protein X4 of SARS-CoV Urbani [3]: 0.8; Binding of serum London to looped/cyclic peptides of protein X4 of SARS-CoV Urbani [3]: 0.3; Binding of serum SARS-green to linear peptides of protein X4 of SARS-CoV Urbani [3]: 0.9; Binding of serum SARS-green to looped/cyclic peptides of protein X4 of SARS-CoV Urbani [3]: 0.8; Binding of serum SARS-yellow to linear peptides of protein X4 of SARS-CoV Urbani [3]: 0.4; Binding of serum SARS-yellow to looped/cyclic peptides of protein X4 of SARS-CoV Urbani [3]: 0.6; Rabbit serum linear peptides [1]: 0.4; Rabbit serum looped peptides [1]: 0.4; Binding of Control Serum Blood-Bank to Looped peptides [4]: 0.8; Binding of Control serum Blood-bank to linear peptides [4]: 0.8; Binding of Control serum LUMC to linear peptides [4]: 0.8; Binding of Control serum LUMC to looped peptides [4]: 0.9
